{"source": "patent US20150164895A1", "about": "“DETERMINING SENSITIVITY OF CELLS TO B-RAF INHIBITOR TREATMENT BY DETECTING KRAS MUTATION AND RTK EXPRESSION LEVELS” (GENENTECH, INC., priority 2009, published 2015)", "tested_on": "lung tumor xenografts", "test": "Experiment H327: growth in lung tumor xenografts after dosing with B-RAF inhibitor", "format": "in vivo, mice", "details": "H327-2, LXFA 1041/9N4, 100 mg/kg/day po Days 0-20; for Absolute body weight, Median / Relative body weight, Median: group median n 10; for Absolute tumor volume: (a*b*b)/2, Median / Relative tumor volume, Median: group median n 20; for Relative tumor volume: individual tumor", "description": "FIGS. 10-18 depict growth in lung tumor xenografts after dosing with GDC-0879.\nThe data are shown below, and in FIGS. 10-14 for Experiment H331 and FIGS. 15-18 for Experiment H327.", "key": {"[1]": {"details": "study day 3, individual animal, listed as G-026887"}, "[2]": {"details": "study day 7, individual animal, listed as G-026887"}, "[3]": {"details": "study day 10, individual animal, listed as G-026887"}, "[4]": {"details": "study day 14, individual animal, listed as G-026887"}}, "note": "Several values for one entry are separate records, joined by “and”; a condition that tells them apart may be missing. Identical values can stand only once.", "data": [{"smiles": "OCCn1cc(-c2ccc3c(c2)CC/C3=N\\O)c(-c2ccncc2)n1", "note": "[GDC-0879, 2-{4-[(1E)-1-(hydroxyimino)-2,3-dihydro-1H-inden-5-yl]-3-(pyridine-4-yl)-1H-pyrazol-1-yl}ethan-1-ol]", "values": [{"measurement": "Survival time", "setting": "individual animal, listed as G-026887", "value": ">20 days (14×) and >21 days (6×)"}, {"measurement": "Absolute body weight, Median", "setting": "study day 0", "value": 25.1, "unit": "g"}, {"measurement": "Relative body weight, Median", "setting": "study day 0", "value": 100.0, "unit": "%"}, {"measurement": "Absolute tumor volume: (a*b*b)/2, Median", "setting": "study day 0", "value": 88.5, "unit": "mm3"}, {"measurement": "Relative tumor volume, Median", "setting": "study day 0", "value": 100.0, "unit": "%"}, {"measurement": "Relative body weight", "setting": "study day 0, individual animal", "value": 100.0, "unit": "%"}, {"measurement": "Absolute body weight", "setting": "study day 0, individual animal, listed as G-026887", "value": "25.4 g and 28.6 g and 24.5 g (2×) and 24.0 g and 25.1 g and 29.8 g and 31.5 g and 25.0 g and 23.6 g"}, {"measurement": "Relative tumor volume", "setting": "study day 0", "value": 100.0, "unit": "%"}, {"measurement": "Absolute body weight, Median", "setting": "study day 3", "value": 25.3, "unit": "g"}, {"measurement": "Relative body weight, Median", "setting": "study day 3", "value": 99.2, "unit": "%"}, {"measurement": "Absolute tumor volume: (a*b*b)/2, Median", "setting": "study day 3", "value": 139.8, "unit": "mm3"}, {"measurement": "Relative tumor volume, Median", "setting": "study day 3", "value": 165.4, "unit": "%"}, {"measurement": "Absolute body weight", "setting": "[1]", "value": "25.6 g and 29.4 g and 24.6 g and 23.8 g and 23.6 g and 25.1 g and 29.3 g and 30.4 g and 25.4 g and 22.9 g"}, {"measurement": "Relative body weight", "setting": "[1]", "value": "100.8% and 102.8% and 100.4% and 97.1% and 98.3% (2×) and 100.0% and 96.5% and 101.6% and 97.0%"}, {"measurement": "Relative tumor volume", "setting": "study day 3, listed as G-026887", "value": "193.9% and 208.9% and 154.7% and 187.7% and 202.6% and 157.6% and 110.0% and 160.2% and 138.1% and 194.2% and 138.9% and 172.0% and 178.9% and 185.0% and 157.3%"}, {"measurement": "Absolute body weight, Median", "setting": "study day 7", "value": 25.7, "unit": "g"}, {"measurement": "Relative body weight, Median", "setting": "study day 7", "value": 101.4, "unit": "%"}, {"measurement": "Absolute tumor volume: (a*b*b)/2, Median", "setting": "study day 7", "value": 228.0, "unit": "mm3"}, {"measurement": "Relative tumor volume, Median", "setting": "study day 7", "value": 258.8, "unit": "%"}, {"measurement": "Absolute body weight", "setting": "[2]", "value": "25.9 g and 30.9 g and 25.2 g and 24.3 g and 24.4 g and 25.4 g and 29.8 g and 30.5 g and 26.3 g and 22.6 g"}, {"measurement": "Relative body weight", "setting": "[2]", "value": "102.0% and 108.0% and 102.9% and 99.2% and 101.7% and 101.2% and 100.0% and 96.8% and 105.2% and 95.8%"}, {"measurement": "Relative tumor volume", "setting": "study day 7, listed as G-026887", "value": "452.1% and 329.8% and 300.6% and 260.9% and 376.4% and 256.7% and 340.1% and 324.4% and 232.6% and 248.9% and 223.2% and 293.8% and 281.8% and 209.2%"}, {"measurement": "Absolute body weight, Median", "setting": "study day 10", "value": 25.5, "unit": "g"}, {"measurement": "Relative body weight, Median", "setting": "study day 10", "value": 100.5, "unit": "%"}, {"measurement": "Absolute tumor volume: (a*b*b)/2, Median", "setting": "study day 10", "value": 305.5, "unit": "mm3"}, {"measurement": "Relative tumor volume, Median", "setting": "study day 10", "value": 388.4, "unit": "%"}, {"measurement": "Absolute body weight", "setting": "[3]", "value": "25.5 g (2×) and 30.4 g and 24.9 g and 24.3 g and 23.8 g and 30.0 g and 30.6 g and 26.1 g and 22.0 g"}, {"measurement": "Relative body weight", "setting": "[3]", "value": "100.4% and 106.3% and 101.6% (2×) and 99.2% (2×) and 100.7% and 97.1% and 104.4% and 93.2%"}, {"measurement": "Relative tumor volume", "setting": "study day 10, listed as G-026887", "value": "586.9% and 487.4% and 508.8% and 376.4% and 414.0% and 411.7% and 522.2% and 562.3% and 323.9% and 342.2% and 332.9% and 385.0% and 391.8% and 264.6%"}, {"measurement": "Absolute body weight, Median", "setting": "study day 14", "value": 25.6, "unit": "g"}, {"measurement": "Relative body weight, Median", "setting": "study day 14", "value": 101.4, "unit": "%"}, {"measurement": "Absolute tumor volume: (a*b*b)/2, Median", "setting": "study day 14", "value": 541.3, "unit": "mm3"}, {"measurement": "Relative tumor volume, Median", "setting": "study day 14", "value": 605.0, "unit": "%"}, {"measurement": "Absolute body weight", "setting": "[4]", "value": "25.1 g and 30.7 g and 24.8 g and 24.6 g and 24.4 g and 26.1 g and 31.2 g and 30.4 g and 26.8 g and 22.7 g"}, {"measurement": "Relative body weight", "setting": "[4]", "value": "98.8% and 107.3% and 101.2% and 100.4% and 101.7% and 104.0% and 104.7% and 96.5% and 107.2% and 96.2%"}, {"measurement": "Relative tumor volume", "setting": "study day 14, listed as G-026887", "value": "964.1% and 811.9% and 593.5% and 515.7% and 743.1% and 697.3% and 1076.6% and 1151.3% and 503.3% and 616.5% and 626.8% and 523.7% and 733.4% and 523.3%"}]}]}
